Like-named read-outs stand apart in the source and are kept apart here.
Legend:
[1] = molecular target: T1, human GABAA α5β3γ2s receptor (Homo sapiens, UniProt P18507+P31644); test: Assay A: in vitro inhibition of 3H-flumazenil binding, HEK cells expressing the human GABAA α5β3γ2s receptor
T1 sequence (P18507 1-475): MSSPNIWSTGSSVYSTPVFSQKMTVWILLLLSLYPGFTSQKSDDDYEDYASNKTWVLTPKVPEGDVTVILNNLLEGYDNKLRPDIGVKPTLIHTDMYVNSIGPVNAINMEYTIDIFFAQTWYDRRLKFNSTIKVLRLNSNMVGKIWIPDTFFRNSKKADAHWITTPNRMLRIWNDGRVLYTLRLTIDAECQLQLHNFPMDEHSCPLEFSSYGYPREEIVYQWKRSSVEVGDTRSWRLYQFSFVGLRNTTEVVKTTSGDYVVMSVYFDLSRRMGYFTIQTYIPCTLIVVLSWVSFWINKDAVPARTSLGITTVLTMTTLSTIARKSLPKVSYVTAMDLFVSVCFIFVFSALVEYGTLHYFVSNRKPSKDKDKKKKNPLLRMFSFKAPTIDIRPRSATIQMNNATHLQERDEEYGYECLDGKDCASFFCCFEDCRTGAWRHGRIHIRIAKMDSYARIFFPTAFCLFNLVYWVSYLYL
T1 sequence (P31644 1-462): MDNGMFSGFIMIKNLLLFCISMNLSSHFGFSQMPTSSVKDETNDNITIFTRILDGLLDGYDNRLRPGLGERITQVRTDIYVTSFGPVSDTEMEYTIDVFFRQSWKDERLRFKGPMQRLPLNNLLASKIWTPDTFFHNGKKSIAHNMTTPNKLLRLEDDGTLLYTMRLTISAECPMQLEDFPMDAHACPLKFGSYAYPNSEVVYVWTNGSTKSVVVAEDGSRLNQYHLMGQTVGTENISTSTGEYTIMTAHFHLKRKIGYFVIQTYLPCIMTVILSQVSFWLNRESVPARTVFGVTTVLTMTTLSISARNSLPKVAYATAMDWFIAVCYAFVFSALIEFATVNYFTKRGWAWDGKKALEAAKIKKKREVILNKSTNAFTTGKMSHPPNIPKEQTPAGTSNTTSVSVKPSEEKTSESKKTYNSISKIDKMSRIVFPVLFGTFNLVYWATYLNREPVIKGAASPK
Procedure: Cell Cultures and Membrane Preparation
HEK-293 cell lines with stable expression of recombinant human GABAA α5ß3 γ2s receptors (plasmid H46/E9/B10) are seeded in T175 polystyrene flasks or roller bottles (1700 cm^2, Fisher Scientific CCI-431191), and cultured (37° C., 5% CO2) in Dulbecco's Modified Eagle Medium (DMEM) with GlutaMAX™ supplemented with 10% fetal bovine serum and one or both of the following antibiotics: hygromycin B ([…]; γ2 subunit) or G418 (0.5 mg/ml; […]).
When the cultures reach confluency, the DMEM is removed and the cells are washed (10 ml for T175 flasks; 50 ml for roller bottles) once in Dulbecco's Phosphate Buffered Saline (DPBS). Following addition of DPBS to the cultures (10 ml for T175 flasks; 100 ml for roller bottles) for approximately 5 min cells are easily detached from the surface by shaking or tapping the flask gently. The cell suspension is transferred to Falcon tubes and centrifuged at 23,500×g for 10 min at 2° C. The pellet is washed once in 15 ml Tris-citrate buffer (50 mM, pH 7.1) using an Ultra-Turrax homogenizer and centrifuged at 2° C. for 10 min at 27,000×g. The washed pellet is re-suspended in 15 ml Tris-citrate buffer and frozen at −80° C. until the day of the binding experiment.
On the day of the experiment the cell membrane preparation is thawed and centrifuged at 2° C. for 10 min at 27,000×g. The pellet is re-suspended, using an Ultra-Turrax homogenizer in Tris-citrate buffer, to 15-50 µg protein per assay and then used for binding assays.
Non-specific binding is determined using clonazepam ([…]).
All dilutions of test compounds and incubation of assay are performed in glass vials/96-vial plates. […] Compounds are dissolved in 100% DMSO (10 mM stock), diluted in 48% ethanol-water, and tested in triplicate in serial 1:3 or 1:10 dilutions. When screening large numbers of compounds only one concentration of each compound is tested in single wells. Reference compounds are not included routinely, but for each experiment performed total and nonspecific binding is compared to data obtained during validation of the assay.
Binding is either terminated by rapid filtration onto
1) Whatman GF/C glass fibre filters using a Brandel Cell harvester, followed by 5 washes with 1 ml ice-cold buffer or onto 2) UniFilter GF/C glass fibre filter plates using a Tomtec cell harvester, followed by washing with approximately 5 ml ice-cold buffer.
The amount of radioactivity on the filters is determined by conventional liquid scintillation counting using a
1) Tri-Garb™ counter (PerkinElmer Life and Analytical Sciences) for separate large filters or
2) Topcount™ counter (PerkinElmer Life and Analytical Sciences) for 96-well filter plates.
Specific binding is total binding minus non-specific binding.
The IC50 value for a test compound is determined based on the equation: […]
where B is the binding in percentage of total specific binding; C is the concentration of test compound; and n is the Hill coefficient. For screening purposes n is set to 1. The IC50 value is calculated from the concentration response curves by the non-linear regression method using the curve-fitting program GraphPad Prism.
The Ki value for a test compound can be calculated from the IC50 value using the equation by Cheng and Prusoff: […]

[2] = molecular target: T2, α5ß2 γ2 GABAA Receptor (Homo sapiens, UniProt P18507+P31644); test: Assay B: in vitro evaluation of modulation of α5ß2γ2 GABAA receptor, two-electrode voltage clamp in oocytes; assay type: cell-based; settings: for EC50: co-application with 0.5 μM GABA, oocytes, read-out: Assay B: GABAA α 5 β 3 γ 2 EC50
T2 sequence (P31644 32-462): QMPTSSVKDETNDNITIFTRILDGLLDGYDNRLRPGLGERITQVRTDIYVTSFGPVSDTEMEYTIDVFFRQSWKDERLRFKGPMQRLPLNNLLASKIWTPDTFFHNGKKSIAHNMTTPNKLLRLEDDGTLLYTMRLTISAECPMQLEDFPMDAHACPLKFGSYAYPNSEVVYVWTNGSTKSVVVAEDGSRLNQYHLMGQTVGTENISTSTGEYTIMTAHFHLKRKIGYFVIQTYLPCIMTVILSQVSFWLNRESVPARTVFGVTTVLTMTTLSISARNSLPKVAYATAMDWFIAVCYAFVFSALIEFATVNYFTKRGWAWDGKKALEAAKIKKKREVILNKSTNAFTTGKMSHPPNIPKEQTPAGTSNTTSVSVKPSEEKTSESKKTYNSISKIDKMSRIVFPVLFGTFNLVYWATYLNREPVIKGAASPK
T2 sequence (P18507 40-376 limits assumed): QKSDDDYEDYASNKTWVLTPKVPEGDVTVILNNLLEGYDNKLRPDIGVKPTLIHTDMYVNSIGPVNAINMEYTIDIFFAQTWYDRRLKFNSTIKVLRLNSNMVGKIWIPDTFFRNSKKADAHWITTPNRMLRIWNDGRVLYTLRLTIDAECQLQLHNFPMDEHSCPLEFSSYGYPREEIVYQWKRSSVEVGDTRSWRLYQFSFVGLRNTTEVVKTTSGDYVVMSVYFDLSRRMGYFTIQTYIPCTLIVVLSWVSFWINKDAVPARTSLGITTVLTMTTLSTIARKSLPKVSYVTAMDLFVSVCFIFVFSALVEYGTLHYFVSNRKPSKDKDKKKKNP
Procedure: Assay B: In Vitro Evaluation of Modulation of α5ß2 γ2 GABAA Receptor.
Modulatory efficacy of compounds of formular (I) is determined electrophysiological recordings in oocytes using the two-electrode voltage clamp (TEVC) technique. Oocytes are injected with cRNA for human GABAA receptor subunits α5, ß2 and γ2 in a 3:1:3 ratio and modulatory efficacy is evaluated by co-applications with a submaximal EC5-20 GABA concentration (0.5 μM) termed GABA control. As a standard, the compounds are tested in five concentrations (3.16, 0.316, 0.0316, 0.00316 and 0.000316 μM) on each oocyte starting with the lowest concentration. Background subtracted peak current amplitudes are normalized to the respective GABAcontrol current, converted to % change and depicted +/−S.E.M. as a function of increasing compound concentrations. Plotted datapoints are fitted to the empirical Hill equation using non-linear regression. 95% confidence intervals for maximal efficacy (Bottom) and potency (Log EC50) are derived from this fitting routine.

[3] = read-out: Assay A: GABAA α 5 β 3 γ 2s Ki
[4] = comparison compounds of WO 2020/016433, read-out: Assay A: GABAA α5 β3 γ2S Ki

Row | Compound | Ki [1, 3] | Assay B: GABAA α 5 β 3 γ 2 Emax vs GABA [2] | EC50 [2] | Ki ([1]; compounds of the present invention, read-out: Assay A: GABAA α5 β3 γ2S Ki) | Ki [1, 4]
1 | Cc1nnn(-c2ccc(C(F)F)cn2)c1COc1ccc(-n2cnc(C(N)=O)c2)nn1 [Example 36] | > 8890 nM |  |  |  | 
2 | CCc1nccn1-c1ccc(OCc2c(-c3ccc(C(F)F)cn3)nnn2C)nn1 [Example 45] | 150 nM | -17.3% | 23 nM |  | 
3 | Cn1nnc(-c2ccc(C(F)F)cn2)c1COc1ccc(-n2ccnc2C#N)nn1 [Example 46] | 220 nM | -26.3% | 10.4 nM |  | 
4 | Cc1nccn1-c1ccc(OCc2c(-c3ccc(C(F)F)cn3)nnn2C)nn1 [Example 47] | 120 nM | -7% | 15.5 nM |  | 
5 | Cc1nnn(-c2ccc(C(F)F)cn2)c1COc1ccc(-n2cncn2)nn1 [Example 55] | 32 nM | -20.3% | 24.3 nM | 0.032 nM | 
6 | Cc1nnn(-c2ccc(C(F)F)cc2)c1COc1ccc(-n2cnc(C#N)c2)nn1 [reference compound] |  |  |  |  | 0.126 nM
7 | Cc1nnn(-c2ccc(C(F)F)cc2)c1COc1ccc(-c2cnccn2)nn1 [reference compound] |  |  |  |  | 0.249 nM
8 | Cc1nnn(-c2ccc(C(F)F)cc2)c1COc1ccc(-c2ccn[nH]2)nn1 [reference compound] |  |  |  |  | 0.12 nM
9 | Cc1nnn(-c2ccc(C(F)F)cc2)c1COc1ccc(-n2cncn2)nn1 [reference compound] |  |  |  |  | 0.546 nM

Further compounds by falling Ki [1, 3], results first:

Row | Ki [1, 3] | Assay B: GABAA α 5 β 3 γ 2 Emax vs GABA [2] | EC50 [2] | Ki ([1]; compounds of the present invention, read-out: Assay A: GABAA α5 β3 γ2S Ki) | Ki [1, 4] | Compound
10 | 25 nM | -17% | 4.2 nM |  |  | Cn1ccc(-c2ccc(OCc3c(-c4ccc(C(F)F)cn4)nnn3C)nn2)n1 [Example 34]
11 | 15 nM | -27.3% | 29 nM |  |  | Cn1nnc(-c2ccc(C(F)F)cn2)c1COc1ccc(-n2cc(Cl)cn2)nn1 [Example 51, 3-(4-chloro-1H-pyrazol-1-yl)-6-({4-[5-(difluoromethyl)pyridin-2-yl]-1-methyl-1H-1,2,3-triazol-5-yl}methoxy)pyridazine]
12 | 14 nM | -5.3% |  |  |  | CNc1cc(-c2ccc(OCc3c(-c4ccc(C(F)F)cn4)nnn3C)nn2)ccn1 [Example 26]
13 | 14 nM | -17.7% | 14.1 nM |  |  | Cc1nnn(-c2ccc(C(F)F)cn2)c1COc1ccc(-n2ccnn2)nn1 [Example 44]
14 | 14 nM | -34.7% | 15 nM |  |  | Cc1nnn(-c2ccc(C(F)F)cn2)c1COc1ccc(-n2cc(F)cn2)nn1 [Example 54, 3-({1-[5-(difluoromethyl)pyridin-2-yl]-4-methyl-1H-1,2,3-triazol-5-yl}methoxy)-6-(4-fluoro-1H-pyrazol-1-yl)pyridazine]
15 | 12 nM | -6.7% |  |  |  | Cn1nnc(-c2ccc(C(F)F)cn2)c1COc1ccc(-c2cncc(C#N)c2)nn1 [Example 27]
16 | 10 nM | -4% |  |  |  | CCn1cc(-c2ccc(OCc3c(C)nnn3-c3ccc(C(F)F)cn3)nn2)ccc1=O [Example 21]
17 | 9 nM | -8% | 75 nM |  |  | CSc1ccc(-c2ccc(OCc3c(C)nnn3-c3ccc(C(F)F)cn3)nn2)cn1 [Example 10]
18 | 9 nM | -13.5% | 37.5 nM |  |  | Cc1nnn(-c2ccc(C(F)F)cn2)c1COc1ccc(-c2cccc(C#N)n2)nn1 [Example 11]
19 | 8 nM | -10.3% | 32.7 nM |  |  | CCc1cn(-c2ccc(OCc3c(-c4ccc(C(F)F)cn4)nnn3C)nn2)nc1N [Example 40]
20 | 6 nM | -9% | 44.5 nM |  |  | Cc1nnn(-c2ccc(C(F)F)cn2)c1COc1ccc(-c2cncc(C#N)c2)nn1 [Example 13]
21 | 2 nM | -21.3% | 43.7 nM |  |  | CNc1cc(C)nn1-c1ccc(OCc2c(-c3ccc(C(F)F)cn3)nnn2C)nn1 [Example 41]

From US20230286946A1, “DIFLUOROMETHYL-PYRIDIN-2-YL TRIAZOLES” (Boehringer Ingelheim International GmbH, priority 2020, published 2023)
